{
  "source": "PubChem BioAssay (NCI)",
  "experiment_in_all_cases": "DTP human tumour cell line panel, 48 h",
  "key": {"NCI-H460 lung": {"test_system": "NCI-H460 lung"}, "NCI-H522 lung": {"test_system": "NCI-H522 lung"}, "NCI/ADR-RES ovarian": {"test_system": "NCI/ADR-RES ovarian"}, "OVCAR-3 ovarian": {"test_system": "OVCAR-3 ovarian"}, "OVCAR-4 ovarian": {"test_system": "OVCAR-4 ovarian"}, "OVCAR-5 ovarian": {"test_system": "OVCAR-5 ovarian"}, "OVCAR-8 ovarian": {"test_system": "OVCAR-8 ovarian"}, "PC-3 prostate": {"test_system": "PC-3 prostate"}, "RPMI-8226 leukemia": {"test_system": "RPMI-8226 leukemia"}, "RXF 393 renal": {"test_system": "RXF 393 renal"}, "SF-268 CNS": {"test_system": "SF-268 CNS"}, "SF-295 CNS": {"test_system": "SF-295 CNS"}, "SF-539 CNS": {"test_system": "SF-539 CNS"}, "SK-MEL-2 melanoma": {"test_system": "SK-MEL-2 melanoma"}, "SK-MEL-28 melanoma": {"test_system": "SK-MEL-28 melanoma"}, "SK-MEL-5 melanoma": {"test_system": "SK-MEL-5 melanoma"}, "SK-OV-3 ovarian": {"test_system": "SK-OV-3 ovarian"}, "SN12C renal": {"test_system": "SN12C renal"}, "SNB-19 CNS": {"test_system": "SNB-19 CNS"}, "SNB-75 CNS": {"test_system": "SNB-75 CNS"}, "SR leukemia": {"test_system": "SR leukemia"}, "SW-620 colon": {"test_system": "SW-620 colon"}, "T-47D breast": {"test_system": "T-47D breast"}, "TK-10 renal": {"test_system": "TK-10 renal"}, "U251 CNS": {"test_system": "U251 CNS"}, "UACC-257 melanoma": {"test_system": "UACC-257 melanoma"}, "UACC-62 melanoma": {"test_system": "UACC-62 melanoma"}, "UO-31 renal": {"test_system": "UO-31 renal"}},
  "note": "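In this assay, cells in 96-well plates receive the compound at five concentrations for 48 hours. Endpoints are linearly interpolated between the surrounding concentrations. GI50: concentration for 50% inhibition of growth. TGI marks complete inhibition of growth.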",
  "data": [
    {"smiles": "CC(C)=C[C@@H]1C[C@H](C)[C@H]2CC[C@H](C)C3=C2[C@](O)(OC3=O)[C@]1(C)O", "values": [
      {"measurement": "TGI", "setting": "NCI-H460 lung", "result": "> 100", "unit": "µM"},
      {"measurement": "GI50", "setting": "NCI-H522 lung", "result": "> 100", "unit": "µM"},
      {"measurement": "TGI", "setting": "NCI-H522 lung", "result": "> 100", "unit": "µM"},
      {"measurement": "GI50", "setting": "NCI/ADR-RES ovarian", "result": "> 100", "unit": "µM"},
      {"measurement": "TGI", "setting": "NCI/ADR-RES ovarian", "result": "> 100", "unit": "µM"},
      {"measurement": "GI50", "setting": "OVCAR-3 ovarian", "result": "> 100", "unit": "µM"},
      {"measurement": "TGI", "setting": "OVCAR-3 ovarian", "result": "> 100", "unit": "µM"},
      {"measurement": "GI50", "setting": "OVCAR-4 ovarian", "result": "> 100", "unit": "µM"},
      {"measurement": "TGI", "setting": "OVCAR-4 ovarian", "result": "> 100", "unit": "µM"},
      {"measurement": "GI50", "setting": "OVCAR-5 ovarian", "result": "> 100", "unit": "µM"},
      {"measurement": "TGI", "setting": "OVCAR-5 ovarian", "result": "> 100", "unit": "µM"},
      {"measurement": "GI50", "setting": "OVCAR-8 ovarian", "result": "> 100", "unit": "µM"},
      {"measurement": "TGI", "setting": "OVCAR-8 ovarian", "result": "> 100", "unit": "µM"},
      {"measurement": "GI50", "setting": "PC-3 prostate", "result": "> 100", "unit": "µM"},
      {"measurement": "TGI", "setting": "PC-3 prostate", "result": "> 100", "unit": "µM"},
      {"measurement": "GI50", "setting": "RPMI-8226 leukemia", "result": "> 100", "unit": "µM"},
      {"measurement": "TGI", "setting": "RPMI-8226 leukemia", "result": "> 100", "unit": "µM"},
      {"measurement": "GI50", "setting": "RXF 393 renal", "result": "> 100", "unit": "µM"},
      {"measurement": "TGI", "setting": "RXF 393 renal", "result": "> 100", "unit": "µM"},
      {"measurement": "TGI", "setting": "SF-268 CNS", "result": "> 100", "unit": "µM"},
      {"measurement": "GI50", "setting": "SF-295 CNS", "result": "> 100", "unit": "µM"},
      {"measurement": "TGI", "setting": "SF-295 CNS", "result": "> 100", "unit": "µM"},
      {"measurement": "GI50", "setting": "SF-539 CNS", "result": "> 100", "unit": "µM"},
      {"measurement": "TGI", "setting": "SF-539 CNS", "result": "> 100", "unit": "µM"},
      {"measurement": "GI50", "setting": "SK-MEL-2 melanoma", "result": "> 100", "unit": "µM"},
      {"measurement": "TGI", "setting": "SK-MEL-2 melanoma", "result": "> 100", "unit": "µM"},
      {"measurement": "GI50", "setting": "SK-MEL-28 melanoma", "result": "> 100", "unit": "µM"},
      {"measurement": "TGI", "setting": "SK-MEL-28 melanoma", "result": "> 100", "unit": "µM"},
      {"measurement": "GI50", "setting": "SK-MEL-5 melanoma", "result": "> 100", "unit": "µM"},
      {"measurement": "TGI", "setting": "SK-MEL-5 melanoma", "result": "> 100", "unit": "µM"},
      {"measurement": "GI50", "setting": "SK-OV-3 ovarian", "result": "> 100", "unit": "µM"},
      {"measurement": "TGI", "setting": "SK-OV-3 ovarian", "result": "> 100", "unit": "µM"},
      {"measurement": "GI50", "setting": "SN12C renal", "result": "> 100", "unit": "µM"},
      {"measurement": "TGI", "setting": "SN12C renal", "result": "> 100", "unit": "µM"},
      {"measurement": "GI50", "setting": "SNB-19 CNS", "result": "> 100", "unit": "µM"},
      {"measurement": "TGI", "setting": "SNB-19 CNS", "result": "> 100", "unit": "µM"},
      {"measurement": "GI50", "setting": "SNB-75 CNS", "result": "> 100", "unit": "µM"},
      {"measurement": "TGI", "setting": "SNB-75 CNS", "result": "> 100", "unit": "µM"},
      {"measurement": "GI50", "setting": "SR leukemia", "result": "> 100", "unit": "µM"},
      {"measurement": "TGI", "setting": "SR leukemia", "result": "> 100", "unit": "µM"},
      {"measurement": "GI50", "setting": "SW-620 colon", "result": "> 100", "unit": "µM"},
      {"measurement": "TGI", "setting": "SW-620 colon", "result": "> 100", "unit": "µM"},
      {"measurement": "GI50", "setting": "T-47D breast", "result": "> 100", "unit": "µM"},
      {"measurement": "TGI", "setting": "T-47D breast", "result": "> 100", "unit": "µM"},
      {"measurement": "GI50", "setting": "TK-10 renal", "result": "> 100", "unit": "µM"},
      {"measurement": "TGI", "setting": "TK-10 renal", "result": "> 100", "unit": "µM"},
      {"measurement": "GI50", "setting": "U251 CNS", "result": "> 100", "unit": "µM"},
      {"measurement": "TGI", "setting": "U251 CNS", "result": "> 100", "unit": "µM"},
      {"measurement": "GI50", "setting": "UACC-257 melanoma", "result": "> 100", "unit": "µM"},
      {"measurement": "TGI", "setting": "UACC-257 melanoma", "result": "> 100", "unit": "µM"},
      {"measurement": "GI50", "setting": "UACC-62 melanoma", "result": 99.8, "unit": "µM"},
      {"measurement": "TGI", "setting": "UACC-62 melanoma", "result": "> 100", "unit": "µM"},
      {"measurement": "GI50", "setting": "UO-31 renal", "result": "> 100", "unit": "µM"},
      {"measurement": "TGI", "setting": "UO-31 renal", "result": "> 100", "unit": "µM"}
    ]}
  ]
}
